Measured values taken from BigSolDB 2.1.

CCCCN(CCCC)c1ccc(C(=O)c2ccccc2C(=O)O)c(O)c1
solubility (mole fraction)
Conditions | 283.15 K | 288.15 K | 293.15 K | 298.15 K | 303.15 K | 308.15 K | 313.15 K | 318.15 K | 323.15 K
in acetone | 0.015 | 0.0171 | 0.0196 | 0.0216 | 0.0251 | 0.0291 | 0.033 | 0.0386 | 0.0436
in acetonitrile | 0.000701 | 0.000848 | 0.00113 | 0.00138 | 0.0018 | 0.00227 | 0.00284 | 0.00363 | 0.00444
in dichloromethane | 0.0128 | 0.0141 | 0.0157 | 0.0183 | 0.0214 | 0.0251 | – | – | –
in ethanol | 0.00193 | 0.00252 | 0.00334 | 0.00422 | 0.00529 | 0.00641 | 0.0082 | 0.0102 | 0.013
in ethyl acetate | 0.0043 | 0.00516 | 0.00606 | 0.00698 | 0.00782 | 0.009 | 0.00995 | 0.0112 | 0.0126
in isopropanol | 0.00178 | 0.00232 | 0.00302 | 0.0039 | 0.00508 | 0.00667 | 0.00886 | 0.0117 | 0.0147
in isopropyl acetate | 0.00415 | 0.00485 | 0.00544 | 0.00624 | 0.00715 | 0.00815 | 0.00901 | 0.00991 | 0.011
in methanol | 0.00164 | 0.00194 | 0.00238 | 0.00292 | 0.0037 | 0.0047 | 0.00617 | 0.00811 | 0.0111
in n-butyl acetate | 0.00418 | 0.00493 | 0.00556 | 0.00639 | 0.00727 | 0.00824 | 0.00952 | 0.0109 | 0.0123
in n-heptane | 1.5e-05 | 1.8e-05 | 2.3e-05 | 2.7e-05 | 3.3e-05 | 3.8e-05 | 4.3e-05 | 4.8e-05 | 5.2e-05
in n-propanol | 0.0165 | 0.0212 | 0.0258 | 0.0321 | 0.0399 | 0.0496 | 0.062 | 0.0773 | 0.0958
in n-propyl acetate | 0.0037 | 0.00454 | 0.00547 | 0.00631 | 0.00738 | 0.00846 | 0.00983 | 0.0115 | 0.0129
